Some test systems named below: OVCAR-3 ovarian; HS 578T breast; NCI/ADR-RES ovarian; HCC-2998 colon; MALME-3M melanoma; MDA-MB-435; OVCAR-8 ovarian; 786-0 renal; HOP-92 NSCLC; OVCAR-4 ovarian.
Common to all, as to experiment: NCI-60 cell line screen, 48 h

Structures are written as SMILES.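 The compound was tested at five concentrations on cells cultured in 96-well plates, with a 48-hour exposure period. GI50 is the concentration that inhibits growth by half. TGI: total growth inhibition.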

Consider `CN1C(=O)N(C)C(O)C(Cl)(Br)C1=O` (stereo unspecified), for which the TGI in the experiment with OVCAR-3 ovarian, in the experiment with HS 578T breast, in the experiment on NCI/ADR-RES ovarian, in the experiment on HCC-2998 colon, in the experiment with MALME-3M melanoma and in the experiment with MDA-MB-435 was greater than 100 µM each time. Further, the TGI in the experiment with OVCAR-8 ovarian and in the experiment on 786-0 renal was greater than 100 µM each time.
For the compound `COc1cc(S(=O)(=O)Nc2ccc(C(=O)/C=C/c3ccc(O)cc3)cc2)ccc1F`, the GI50 with OVCAR-3 ovarian was greater than 100 µM; with HOP-92 NSCLC, 1.55 µM; in the experiment on HS 578T breast, greater than 100 µM; in the experiment on NCI/ADR-RES ovarian, greater than 100 µM; in the experiment on HCC-2998 colon, greater than 100 µM; with MALME-3M melanoma, 35.1 µM. Moreover, the GI50 in the experiment on MDA-MB-435, in the experiment with OVCAR-4 ovarian and in the experiment on OVCAR-8 ovarian was greater than 100 µM in each case. In addition, the TGI with OVCAR-3 ovarian is greater than 100 µM; in the experiment with HOP-92 NSCLC, 27.5 µM; with HS 578T breast it was greater than 100 µM; in the experiment with NCI/ADR-RES ovarian, greater than 100 µM; with HCC-2998 colon it was greater than 100 µM; with MALME-3M melanoma, greater than 100 µM. Also, the TGI in the experiment with MDA-MB-435, with OVCAR-4 ovarian and in the experiment with OVCAR-8 ovarian was greater than 100 µM each time.
`O=P(O)(O)c1ccccc1Oc1ccccc1`: the TGI with OVCAR-3 ovarian, with HOP-92 NSCLC, in the experiment on HS 578T breast, in the experiment on NCI/ADR-RES ovarian, with HCC-2998 colon and with MDA-MB-435 was greater than 100 µM each time. Besides, the TGI with OVCAR-8 ovarian and with 786-0 renal was greater than 100 µM throughout.
Regarding `O=c1nc2c(c(-c3ccc(Br)cc3)[nH]1)COC/C2=C\c1ccc(Br)cc1`, the TGI with OVCAR-3 ovarian, in the experiment with HOP-92 NSCLC, in the experiment on HS 578T breast, in the experiment on NCI/ADR-RES ovarian, with HCC-2998 colon and with MALME-3M melanoma was greater than 50 µM each time. Moreover, the TGI with MDA-MB-435, in the experiment on OVCAR-4 ovarian, with OVCAR-8 ovarian and in the experiment with 786-0 renal was greater than 50 µM throughout.
For `COc1ccc(-c2c3c(n(C4OC(CO)C(O)C(O)C4O)c(=S)c2C#N)CCC3)cc1` (stereo unspecified), the TGI with OVCAR-3 ovarian was 69.6 µM; in the experiment with HOP-92 NSCLC, greater than 100 µM; with HS 578T breast, greater than 100 µM; in the experiment on NCI/ADR-RES ovarian, greater than 100 µM; in the experiment with HCC-2998 colon, greater than 100 µM; in the experiment with MALME-3M melanoma, greater than 100 µM. Besides, the TGI in the experiment with MDA-MB-435, with OVCAR-4 ovarian and in the experiment on 786-0 renal was greater than 100 µM throughout.
Turning to `Cn1c(=O)c2c(nc3n(Cc4ccccc4)c(=O)c(NCCCBr)cn23)n(C)c1=O`, the TGI with OVCAR-3 ovarian was greater than 100 µM; in the experiment with HOP-92 NSCLC, 58.5 µM; in the experiment with HS 578T breast it was greater than 100 µM; in the experiment with NCI/ADR-RES ovarian it was greater than 100 µM; in the experiment on HCC-2998 colon, greater than 100 µM; in the experiment on MDA-MB-435, greater than 100 µM. The TGI in the experiment on OVCAR-4 ovarian, with OVCAR-8 ovarian and in the experiment on 786-0 renal was greater than 100 µM throughout.
With `CC(=O)OCC1OC(n2c(-c3ccccc3)c(N=Nc3ccccc3)c(C)c(C#N)c2=S)C(OC(C)=O)C(OC(C)=O)C1OC(C)=O` (stereo unspecified), the TGI in the experiment on OVCAR-3 ovarian, in the experiment on HOP-92 NSCLC, in the experiment on HS 578T breast, in the experiment with NCI/ADR-RES ovarian, in the experiment with HCC-2998 colon and with MALME-3M melanoma was greater than 100 µM throughout. The TGI in the experiment on MDA-MB-435, in the experiment with OVCAR-4 ovarian and with 786-0 renal was greater than 100 µM each time.
With `S=C(N/N=C\C(=N/NC(=S)N1CCCCC1)c1ccccc1)N1CCCCC1`, the TGI in the experiment with OVCAR-3 ovarian was 3.68 µM; in the experiment with HOP-92 NSCLC, 3.88 µM; in the experiment on HS 578T breast, 5.23 µM; in the experiment on NCI/ADR-RES ovarian, 7.87 µM; with HCC-2998 colon, 3.9 µM; with MALME-3M melanoma, 3.57 µM. For the same compound, the TGI was determined as 3.68 µM with MDA-MB-435, 3.43 µM with OVCAR-4 ovarian and 3.74 µM in the experiment with 786-0 renal.
On to `COc1cc(CC(C)NC(C)=O)cc(OC)c1` (stereo unspecified), for which the TGI in the experiment with OVCAR-3 ovarian, with HS 578T breast, in the experiment with NCI/ADR-RES ovarian, in the experiment on HCC-2998 colon, with MALME-3M melanoma and in the experiment on MDA-MB-435 was greater than 100 µM throughout. For the same compound, the TGI in the experiment on OVCAR-8 ovarian and in the experiment on 786-0 renal was greater than 100 µM each time.
In the case of `c1cncc(CC2(c3cc4ccccc4[nH]3)OCCO2)c1`, the TGI in the experiment on HOP-92 NSCLC, with HS 578T breast, in the experiment with NCI/ADR-RES ovarian, in the experiment with HCC-2998 colon, with MALME-3M melanoma and in the experiment with MDA-MB-435 was greater than 100 µM in each case. The TGI in the experiment on OVCAR-4 ovarian, in the experiment on OVCAR-8 ovarian and in the experiment with 786-0 renal was greater than 100 µM in each case.
In the case of `COc1ccc(C2C3=C(COC3=O)Oc3cc4c(cc32)OCO4)c(OC)c1` (stereo unspecified), the TGI in the experiment on OVCAR-3 ovarian is 58.7 µM; with HS 578T breast it was 98.3 µM; in the experiment with NCI/ADR-RES ovarian it was greater than 100 µM; in the experiment on HCC-2998 colon it was greater than 100 µM; with MALME-3M melanoma it was greater than 100 µM; in the experiment with MDA-MB-435 it was 5.49 µM. Further, the TGI with OVCAR-4 ovarian, in the experiment on OVCAR-8 ovarian and with 786-0 renal was greater than 100 µM in each case.
On to `Cc1cc(C)c(S(=O)(=O)N(CCCN)OCCCON(CCCN)S(=O)(=O)c2c(C)cc(C)cc2C)c(C)c1`, for which the TGI came out at 4.26 µM in the experiment with OVCAR-3 ovarian; 5.27 µM in the experiment on HOP-92 NSCLC; 3.16 µM in the experiment on HS 578T breast; 36.4 µM in the experiment with NCI/ADR-RES ovarian; 2.61 µM in the experiment with MALME-3M melanoma; 4.21 µM in the experiment on MDA-MB-435. Further, the TGI in the experiment with OVCAR-4 ovarian came to 5.22 µM; with OVCAR-8 ovarian, 11 µM; in the experiment with 786-0 renal it was 5.86 µM.
`COc1cc(-c2n/c(=C\c3c(O)[nH]c4ccc(Cl)cc34)cc3c2=Nc2ccccc2-3)ccc1F`: the GI50 in the experiment with OVCAR-3 ovarian is 1.98 µM; with HOP-92 NSCLC it was 1.73 µM; with HS 578T breast, 2.07 µM; with NCI/ADR-RES ovarian it was 2.03 µM; in the experiment on HCC-2998 colon, 2.94 µM; in the experiment on MDA-MB-435, 2.16 µM. Besides, the values for the GI50 in the experiment with OVCAR-4 ovarian and in the experiment with OVCAR-8 ovarian were 1.74 µM and 2.03 µM, respectively. In addition, the TGI in the experiment on OVCAR-3 ovarian worked out at 4.06 µM; in the experiment with HOP-92 NSCLC it was 3.82 µM; in the experiment on HS 578T breast it was 5.92 µM; in the experiment with NCI/ADR-RES ovarian it was 5.04 µM; in the experiment on HCC-2998 colon, 8.81 µM; in the experiment with MDA-MB-435, 4.65 µM. For the same compound, the results for the TGI in the experiment on OVCAR-4 ovarian and in the experiment with OVCAR-8 ovarian were 3.48 µM and 5.19 µM, respectively.
